{
  "source": "patent US7314858B2",
  "about": "“Retrocyclins: antiviral and antimicrobial peptides” (priority 2001, dated 2008)",
  "key": {"HIV-1 strain IIIB [1]": {"tested_on": "HIV-1 strain IIIB", "test": "HIV-1 IIIB infection of CD4+ PBMC, p24 antigen ELISA", "type": "cell-based", "details": "CD4+ PBMC, IIIB (X4), peptide 10-20 μg/ml", "protocol": "FIG. 5A-C. Anti-HIV-1 activity of retrocyclin. Two strains of HIV-1 and two types of human target cells were used. The IIIB strain is T-cell tropic (X4) and utilizes the CXCR4 co-receptor for entry; the JR-CSF strain is M-tropic (R5) and uses CCR5 for entry. PBMC signifies CD4^+-selected peripheral blood mononuclear cells. […] (A) Two concentrations of retrocyclin (2 μg/ml, 20 μg/ml), 20 μg/ml of the Rhesus circular defensin “RTD-1”, and 20 μg/ml of a horseshoe crab-derived peptide “T140”, reported to only prevent X4 infections, were tested in antiviral assays of against strain IIIB in H9 cells (n=2-6 per peptide; error bars indicate SEM). (B) To confirm our results with primary human cells, similar assays were performed utilizing IIIB virus and CD4^+ PBMC or (C) JR-CSF virus and CD4^+ PBMC. […] Average of duplicate experiments are reported for studies with PBMCs. Assay sensitivity=10 pg/ml.\nEither HIV-1-permissive H9 cells were used as targets, or primary CD4^+ lymphocytes from HIV-1-seronegative donors generated from freshly purified peripheral blood mononuclear cells (PBMC) stimulated with a CD3-CD8 bispecific monoclonal antibody. […] These cells were maintained in RPMI containing 10% FCS supplemented with 2 mM glutamine, 100 U of penicillin/ml, 10 μg of streptomycin/ml, and 50 U of interleukin 2/ml (R10-50 media).\nExamining the effect of adding retrocyclin at various times pre- and post-HIV-1 infection. […] Primary CD4^+ PBMC were incubated with HIV-IIIB (FIG. 6) or HIV-JR-CSF for 3 hours in the presence or absence of 20 μg/ml retrocyclin. The cells were subsequently washed in media, and incubated an additional 9 days. Retrocyclin (20 μg/ml) was added back to some of the cultures at time points specified in FIG. 6 and infection was monitored by p24 ELISA as previously described. […]"}, "HIV-1 strain JR-CSF": {"tested_on": "HIV-1 strain JR-CSF", "test": "HIV-1 JR-CSF infection of CD4+ PBMC, p24 antigen ELISA", "type": "cell-based", "details": "JR-CSF (R5), peptide 10-20 μg/ml", "protocol": "FIG. 5A-C. Anti-HIV-1 activity of retrocyclin. Two strains of HIV-1 and two types of human target cells were used. The IIIB strain is T-cell tropic (X4) and utilizes the CXCR4 co-receptor for entry; the JR-CSF strain is M-tropic (R5) and uses CCR5 for entry. PBMC signifies CD4^+-selected peripheral blood mononuclear cells. […] (A) Two concentrations of retrocyclin (2 μg/ml, 20 μg/ml), 20 μg/ml of the Rhesus circular defensin “RTD-1”, and 20 μg/ml of a horseshoe crab-derived peptide “T140”, reported to only prevent X4 infections, were tested in antiviral assays of against strain IIIB in H9 cells (n=2-6 per peptide; error bars indicate SEM). (B) To confirm our results with primary human cells, similar assays were performed utilizing IIIB virus and CD4^+ PBMC or (C) JR-CSF virus and CD4^+ PBMC. Peptides were not cytotoxic at indicated concentrations, measured by trypan blue exclusion. Average of duplicate experiments are reported for studies with PBMCs. Assay sensitivity=10 pg/ml.\n(§1) Either HIV-1-permissive H9 cells were used as targets, or primary CD4^+ lymphocytes from HIV-1-seronegative donors generated from freshly purified peripheral blood mononuclear cells (PBMC) stimulated with a CD3-CD8 bispecific monoclonal antibody. After approximately 7 days, when 98% of these cells co-expressed CD3 and CD4, they were infected with HIV-1 with or without retrocyclin or other test peptide. These cells were maintained in RPMI containing 10% FCS supplemented with 2 mM glutamine, 100 U of penicillin/ml, 10 μg of streptomycin/ml, and 50 U of interleukin 2/ml (R10-50 media).\nThe p24 assay results shown in FIG. 9 are on a logarithmic scale. A horizontal reference line that passes through 100 on the ordinate scale corresponds to […] of p24 antigen. Results from 3 experiments (each performed with PBMC from a different donor) are shown."}, "HSV-2": {"tested_on": "HSV-2", "test": "HSV inactivation microplate assay on ME-180 cells (MTT)", "type": "cell-based", "details": "2-50 μg/ml, 2 hrs with virus, 72 hrs culture", "protocol": "FIG. 14. Inactivation of HSV-1 and HSV-2 by retrocyclin and RC-101. Retrocyclin (left panel) and RC-101 (right panel) at the indicated concentrations were incubated with herpes simplex virus, type 1 (HSV-1) or HSV-2 for 2 hrs and then added to ME-180 cell monolayers. Cells were incubated at 37° C. for 72 hrs, and cytotoxicity was measured with an MTT kit.\nSome retrocyclins are slightly active against herpes simplex virus (HSV). To determine if the activity of retrocyclin against HIV-1 was specific or representative of a more global antiviral effect, it was tested its ability to prevent HSV infection in vitro. A quantitative microplate assay was used to screen retrocyclin and retrocyclin-congeners for their ability to inactivate HSV type 1 (HSV-1) and HSV-2. The assay utilized small amounts of peptide and simultaneously evaluated for peptide-induced cytotoxicity. In brief, final peptide concentrations of 2-50 μg/ml were incubated with virus stocks for 2 hrs and added directly to ME-180 human cervical carcinoma cells. Cultures were incubated at 37° C. for 72 hrs and cytotoxicity was measured using a 3-(4,5-dimethylthiazon-2-yl)-2,5-diphenyltetrazolium bromide (MTT) cell proliferation kit (Boehringer-Mannheim, Germany). Calculations to assess antiviral activity and compute “percent protection” are delineated in (90)."}, "primary HIV-1 isolates": {"tested_on": "primary HIV-1 isolates", "details": "previous assays; included as negative control", "text": "Viral isolates. Primary HIV-1 isolates were obtained from Institutional Review Board-approved Centers for Disease Control and Prevention (CDC) Studies or from the National Institutes of Health Research and Reference Reagent Program and World Health Organization collaborative network. Detailed characteristics of the CDC isolates, including subtype determination based on the envelope region, and co-receptor usage using GHOST cell lines have been described elsewhere. For viruses obtained from the NIH Research and Reference Reagent Program, the reported subtype and co-receptor data were used as supplied. Viral stocks were generated by infecting CD8-depleted normal human peripheral blood mononuclear cells. After filtration through 0.22-μm filters, aliquots of the stocks were stored at −70° C. until used.\nReporter gene-based viral replication assay. JC53-BL cells, an HIV-1 reporter cell line derived from HeLa cells that expresses high levels of CD4 and the HIV co-receptors CXCR4 and CCR5, were a gift of Tranzyme Inc. (Birmingham, Ala.). The JC53-BL cells contain cassettes for luciferase and β-galactosidase, each driven by the HIV-1 LTR. HIV infection (tat production) can be detected either by measuring luciferase activity or by counting blue foci after staining the cells with “X-Gal” (5-Bromo-4-chloro-3-indolyl β-D-galactopyranoside), as described elsewhere in detail. The JC53-BL cells were maintained in Dulbecco's modified Eagle medium supplemented with 10% fetal calf serum. (HyClone, Logan, Utah), 2 mM glutamine (Gibco), 100 units per ml penicillin G and 100 μg/ml streptomycin (GIBCO™, Invitrogen Corp., San Diego, Calif.). Viral titers were determined by adding serial dilutions of the virus stocks, in triplicate, to wells containing 20,000 JC53-BL cells, after supplementing the above medium with 40 μg/ml DEAE (diethylaminoethyl)-dextran. After a 48 hour incubation at 37° C. in 5% CO2, the cells were fixed and stained for β galactosidase, and the blue foci were counted with a light microscope. Multiplicity of infection (MOI) values were taken from the infectious unit data.\nIn vitro infections were carried out in the presence or absence of θ-defensin peptides. Briefly, JC53-BL cells were harvested from T-150 flasks approximately 18 hours prior to starting the assay with 0.1 mM EDTA in 0.017 M PBS, pH 7.4. The cells were washed and transferred to sterile white 96-well plates (Thermo Labsystems, Franklin, Mass.) at a density of 20,000 cells in 50 μl of medium. […] After this 3-hour preincubation with peptides, viruses were added in media containing 40 μg/ml DEAE-dextran. The final volume was 200 μl per well, and the multiplicity of infection (viruses/cell) ranged from 0.009 to 0.65. After the plates had incubated at 37° C. in 5% CO2 for 48 hours, luciferase activity was measured with the Steady-Glo Luciferase Assay System (Promega, Madison, Wis.), using the manufacturer's lysis protocol. Relative light intensity was measured with a Tecan luminometer running Magellan software (Tecan, Research Triangle Park, N.C.) and reported as relative light units (RLU). Each plate contained three sets of quadruplicate controls: media-only (background), virus-only (peptide-free), and recombinant luciferase. Samples were run in duplicate and the % inhibition was calculated from the mean values using the formula: % Inhibition=1−(average RLU peptide+virus wells/average RLU virus only wells)×100.\nFifty-percent inhibitory concentration values (IC50) were calculated using the predicted exponential growth function in Microsoft Excel, which uses known x-y values to estimate a given x value (in this case concentration of peptide) that would correspond to a given y value (in this case IC50). Statistical comparisons were by paired t-tests, unless otherwise noted."}, "HIV-1 strain IIIB [2]": {"tested_on": "HIV-1 strain IIIB", "test": "HIV-1 IIIB infection of H9 cells, p24 antigen ELISA", "type": "cell-based", "details": "H9 cells, IIIB (X4), peptide 10-20 μg/ml", "protocol": "FIG. 1. Circular minidefensins reduce HIV-1 infection of H9 cells. HIV-I strain IIIB (MOI=10^−2) was incubated with 2.5×10^5 H9 cells in the presence or absence of 20 μg/ml RTD-1, RTD-2 or RTD-3. p24 antigen release was monitored by ELISA on days 3, 6, and 9. Assay sensitivity=10 pg/ml.\nImmortalized CD4^+ H9 cells, which are permissive for infection with this strain, were maintained in RPMI supplemented with 10% heat-inactivated fetal calf serum (FCS), 10 mM HEPES, 2 mM glutamine, 100 U of penicillin/ml, and 10 μg of streptomycin/ml (R10 media). Cells (2.5×10^5/100 μl) were incubated with virus (multiplicity of infection (MOI)=10^−2) in the presence or absence of 20 μg/ml RTD-1, RTD-2 or RTD-3 for 3 hrs at 37° C./5% CO2. The cells were washed in R10 media, seeded in 48-well tissue culture plates in 1 ml R10 media, and incubated at 37° C./5% CO2 for 9 days. Aliquots of cell supernatant were removed at the specified time points and analyzed by a sensitive ELISA (DuPont NEN) that quantitates p24 antigen of HIV-1. The three circular rhesus minidefensins were similarly active, inhibiting HIV-1 by 100-1000 fold by 9 days post-inoculation (note the logarithmic scale).\nas §1\nMature retrocyclin was prepared by a three-step process."}},
  "note": "Entries after “also recorded” stand apart in the source; their conditions may differ.",
  "data": [
    {"molecule": "I6Y-Retrocyclin (cyclo(GICRCYCGRGICRCICGR); disulfide (positions not given here); ring closure inferred; not fully specified (bridges)) [RC-102, cyclic …]", "values": [
      {"measurement": "inhibition of HIV-1 replication (p24)", "setting": "HIV-1 strain IIIB [1]", "value": "either inactive or only modestly active; also recorded: relatively ineffective"},
      {"measurement": "inhibition of HIV-1 replication (p24)", "setting": "HIV-1 strain JR-CSF", "value": "considerable ability to protect cells; also recorded: substantial activity"},
      {"measurement": "protection against HSV-2", "setting": "HSV-2", "value": "less antiviral than retrocyclin"}
    ]},
    {"molecule": "I15Y-Retrocyclin (cyclo(GICRCICGRGICRCYCGR); disulfide (positions not given here); ring closure inferred; not fully specified (bridges)) [RC-103]", "values": [
      {"measurement": "inhibition of HIV-1 replication (p24)", "setting": "HIV-1 strain IIIB [1]", "value": "either inactive or only modestly active; also recorded: relatively ineffective"},
      {"measurement": "inhibition of HIV-1 replication (p24)", "setting": "HIV-1 strain JR-CSF", "value": "considerable ability to protect cells; also recorded: substantial activity"},
      {"measurement": "protection against HSV-2", "setting": "HSV-2", "value": "less antiviral than retrocyclin"}
    ]},
    {"molecule": "R4Y-Retrocyclin [RC-106]", "values": [
      {"measurement": "inhibition of HIV-1 replication (p24)", "setting": "HIV-1 strain IIIB [1]", "value": "either inactive or only modestly active; also recorded: lack of efficacy"},
      {"measurement": "inhibition of HIV-1 replication (p24)", "setting": "HIV-1 strain JR-CSF", "value": "lack of efficacy"},
      {"measurement": "anti-HIV activity", "setting": "primary HIV-1 isolates", "value": "little or no anti-HIV activity"}
    ]},
    {"molecule": "R13Y-Retrocyclin (cyclo(GICICICGRGICYCICGR); disulfide (positions not given here); ring closure inferred; not fully specified (bridges)) [RC-108]", "values": [
      {"measurement": "inhibition of HIV-1 replication (p24)", "setting": "HIV-1 strain IIIB [1]", "value": "either inactive or only modestly active; also recorded: lack of efficacy"},
      {"measurement": "inhibition of HIV-1 replication (p24)", "setting": "HIV-1 strain JR-CSF", "value": "lack of efficacy"}
    ]},
    {"molecule": "RTD-2: rhesus circular minidefensin, homodimer of two identical nonapeptide elements (SEQ ID NO:17) (peptide, listed as Macaca mulatta, cyclic homodimer of two nonapeptides; SIGNAL (1)...(20)) MRTFALLTAMLLLVALHAQAEARQARADEAAAQQQPGADDQGMAHSFTRPENAALPLSESARGLRCLCRRGVCQLL", "values": [
      {"measurement": "inhibition of HIV-1 replication (p24)", "setting": "HIV-1 strain IIIB [2]", "value": "protective to a lesser extent than retrocyclin"}
    ]},
    {"molecule": "RTD-3: rhesus circular minidefensin, homodimer of two identical nonapeptide elements (SEQ ID NO:15) (peptide, listed as Macaca mulatta, cyclic homodimer of two nonapeptides; SIGNAL (1)...(20)) MRTFALLTAMLLLVALHAQAEARQARADEAAAQQQPGTDDQGMAHSFTWPENAALPLSESAKGLRCICTRGFCRLL", "values": [
      {"measurement": "inhibition of HIV-1 replication (p24)", "setting": "HIV-1 strain IIIB [2]", "value": "protective to a lesser extent than retrocyclin"}
    ]}
  ]
}
